Measured values published in ChEMBL document CHEMBL4483862, “Open-source discovery of chemical leads for next-generation chemoprotective antimalarials” (2018).

Test system: Plasmodium berghei
Experiment: Luciferase/luciferin-expressing antifolate-resistant parasites were used to infect a culture of HepG2 cells that were pre-incubated with compounds. Infected hepatocytes emit light due to the luciferase reaction. Assay results are presented as the percent inhibition of light emission compared to control. […]
Assay type: functional
Conditions: sporozoite; for IC90: read-out: LUCIFERASE INFECTION ASSAY - IC90

Row | Compound | IC90 [µM] | further results
1 | O=C(c1cc(-c2ccccc2)[nH]n1)N1CCN(S(=O)(=O)c2ccccc2)CC1 | > 10 | IC50 (PBLUC_HILL_SLOPE 0.361, PBLUC_R_SQUARED 0.34, read-out: LUCIFERASE INFECTION ASSAY - IC50): 1.07 µM
2 | Cc1cc(C(=O)Cn2nnc3ccccc3c2=O)c(C)n1-c1ccccc1F | 3.8 | IC50 (PBLUC_HILL_SLOPE 0.371, 0.679, PBLUC_R_SQUARED 0.784, 0.965, read-out: LUCIFERASE INFECTION ASSAY - IC50): 0.126 µM
3 | COc1cc(-c2nc3ccc(NC(=O)c4ccco4)cn3n2)cc(OC)c1OC | > 10 | IC50 (PBLUC_HILL_SLOPE 0.261, PBLUC_R_SQUARED 0.0451, read-out: LUCIFERASE INFECTION ASSAY - IC50): > 10 µM
4 | COC(=O)c1c(NC(=O)CSc2nnc(-c3ccccc3Cl)n2C2CCCC2)sc(C)c1C | > 10 | IC50 (PBLUC_HILL_SLOPE 0.364, PBLUC_R_SQUARED 0.4, read-out: LUCIFERASE INFECTION ASSAY - IC50): > 10 µM
5 | CC(C)c1nc(NCC2CCCO2)c(C#N)c2c1CCCC2 (stereo not given) | > 11 | IC50 (PBLUC_HILL_SLOPE 0.297, PBLUC_R_SQUARED 0.0572, read-out: LUCIFERASE INFECTION ASSAY - IC50): > 11 µM
6 | Nc1n[nH]c(Nc2cccc(Cl)c2Cl)c1C(=O)c1cccs1 | 3.45 | IC50 (PBLUC_HILL_SLOPE 0.162, PBLUC_R_SQUARED 0.284, read-out: LUCIFERASE INFECTION ASSAY - IC50): < 0.0128 µM
7 | C=CCNC(=S)N1CCc2sccc2C1c1ccc(OC)cc1 (stereo not given) | > 9.58 | IC50 (PBLUC_HILL_SLOPE 0.135, PBLUC_R_SQUARED 0.112, read-out: LUCIFERASE INFECTION ASSAY - IC50): > 9.58 µM
8 | O=C(N/N=C1/C(=O)c2cccc3cccc1c23)c1ccccc1-n1cccc1 | > 10 | IC50 (PBLUC_HILL_SLOPE 0.275, PBLUC_R_SQUARED 0.0663, read-out: LUCIFERASE INFECTION ASSAY - IC50): > 10 µM
9 | Cc1ccc2c(Cl)cc(Cl)c(Oc3ncnc4scc(-c5ccc(Cl)cc5)c34)c2n1 | > 10 | IC50 (PBLUC_HILL_SLOPE 0.397, PBLUC_R_SQUARED 0.123, read-out: LUCIFERASE INFECTION ASSAY - IC50): > 10 µM
10 | Cc1ccc(Sc2nc(-c3cccs3)ns2)cc1 | > 11.4 | IC50 (PBLUC_HILL_SLOPE 0.427, PBLUC_R_SQUARED 0.742, read-out: LUCIFERASE INFECTION ASSAY - IC50): 0.259 µM
11 | Cc1cc2oc(=O)cc(Cn3cnc([N+](=O)[O-])c3)c2cc1C | > 10 | IC50 (PBLUC_HILL_SLOPE 0.353, PBLUC_R_SQUARED 0.0201, read-out: LUCIFERASE INFECTION ASSAY - IC50): > 10 µM
12 | COc1ccc2ccccc2c1/C=N/n1c(-c2ccc(Br)s2)cs/c1=N\c1ccc(Cl)cc1 | > 10 | IC50 (PBLUC_HILL_SLOPE 0.354, PBLUC_R_SQUARED 0.256, read-out: LUCIFERASE INFECTION ASSAY - IC50): > 10 µM
13 | O=C(Nc1cc(C(F)(F)F)cc(C(F)(F)F)c1)c1cc2ccccc2s1 | > 8.48 | IC50 (PBLUC_HILL_SLOPE 0.25, PBLUC_R_SQUARED 0.0524, read-out: LUCIFERASE INFECTION ASSAY - IC50): > 8.48 µM
14 | O=C(Nc1ccc(Cl)cc1)O/N=C(\Nc1ccc(OC(F)(F)F)cc1)c1c(Cl)cccc1Cl | > 6.36 | IC50 (PBLUC_HILL_SLOPE 0.408, PBLUC_R_SQUARED 0.392, read-out: LUCIFERASE INFECTION ASSAY - IC50): > 6.36 µM
15 | CN(C)S(=O)(=O)c1cccc(C(=O)Nc2cnc3ccccc3c2)c1 | > 10 | IC50 (PBLUC_HILL_SLOPE 0.341, PBLUC_R_SQUARED 0.599, read-out: LUCIFERASE INFECTION ASSAY - IC50): 0.331 µM
16 | Cc1cc(-n2c(-c3cccnc3Oc3ccccc3)n[nH]c2=S)ccc1Br | > 7.51 | IC50 (PBLUC_HILL_SLOPE 0.263, PBLUC_R_SQUARED 0.232, read-out: LUCIFERASE INFECTION ASSAY - IC50): > 7.51 µM
17 | CCCn1c(C)cc(/C=C(\C#N)C(=O)OCC(=O)Nc2sc(C)c(-c3ccc(C)cc3)c2C(=O)OCC)c1C | > 10 | IC50 (PBLUC_HILL_SLOPE 0.191, PBLUC_R_SQUARED 0.0121, read-out: LUCIFERASE INFECTION ASSAY - IC50): > 10 µM
18 | Clc1ccc(C2=NC(c3ccc(Cl)c(Cl)c3)N=C(c3ccc(Cl)cc3)S2)cc1 | > 7.08 | IC50 (PBLUC_HILL_SLOPE 0.411, PBLUC_R_SQUARED 0.521, read-out: LUCIFERASE INFECTION ASSAY - IC50): > 7.08 µM
19 | CCOC(=O)c1c(C)[nH]c(C(=O)Nc2cccc(C)n2)c1C | > 10 | IC50 (PBLUC_HILL_SLOPE 0.344, PBLUC_R_SQUARED 0.589, read-out: LUCIFERASE INFECTION ASSAY - IC50): 0.0971 µM
20 | CCCCn1nc(C)c(C(=O)Nc2nc3ccccc3[nH]2)c1Cl | > 10 | IC50 (PBLUC_HILL_SLOPE 0.43, PBLUC_R_SQUARED 0.84, read-out: LUCIFERASE INFECTION ASSAY - IC50): 0.0912 µM

Row | Compound | IC90 [µM] | further results
21 | COc1ccc(N2CCN(CCCNS(=O)(=O)c3ccc(Cl)cc3C(F)(F)F)CC2)cc1 | > 10 | IC50 (PBLUC_HILL_SLOPE 0.0792, 17.3, PBLUC_R_SQUARED 0.0344, 0.317, read-out: LUCIFERASE INFECTION ASSAY - IC50): 9.67 µM
22 | COc1ccc(Cl)cc1COC(=O)COc1ccc2c(c1)CCC(=O)N2 | > 10 | IC50 (PBLUC_HILL_SLOPE 0.441, PBLUC_R_SQUARED 0.194, read-out: LUCIFERASE INFECTION ASSAY - IC50): > 10 µM
23 | CS(=O)(=O)c1nc2ccccc2n1CC(=O)c1ccc2c(c1)CCO2 | > 10 | IC50 (PBLUC_HILL_SLOPE 0.389, PBLUC_R_SQUARED 0.133, read-out: LUCIFERASE INFECTION ASSAY - IC50): > 10 µM
24 | O=C(CCCc1cccs1)Nc1nnc[nH]1 | > 10 | IC50 (PBLUC_HILL_SLOPE 0.436, PBLUC_R_SQUARED 0.0408, read-out: LUCIFERASE INFECTION ASSAY - IC50): > 10 µM
25 | CCn1c(CNC(=O)C2CCN(c3ccc(C#N)cn3)CC2)nc2ccccc21 | > 10 | IC50 (PBLUC_HILL_SLOPE 0.433, PBLUC_R_SQUARED 0.506, read-out: LUCIFERASE INFECTION ASSAY - IC50): 4.94 µM
26 | COc1cccc(NC(=O)c2cc(C(C)(C)C)n(-c3ccccc3)c2C)c1 | > 9.1 | IC50 (PBLUC_HILL_SLOPE 0.223, PBLUC_R_SQUARED 0.111, read-out: LUCIFERASE INFECTION ASSAY - IC50): > 9.1 µM
27 | CCCCc1ccc(C(=O)Nc2nc3ccccn3c2C(=O)NCCCN2CCOCC2)cc1 | > 7.12 | IC50 (PBLUC_HILL_SLOPE 0.361, PBLUC_R_SQUARED 0.518, read-out: LUCIFERASE INFECTION ASSAY - IC50): 2.21 µM
28 | COc1ccccc1NC(=S)N/N=C/c1ccc(N2CCOCC2)cc1 | > 10 | IC50 (PBLUC_HILL_SLOPE 0.342, PBLUC_R_SQUARED 0.162, read-out: LUCIFERASE INFECTION ASSAY - IC50): 1.98 µM
29 | CN(C)CCCOc1ccc(-c2ccc(C(C)(C)C)cc2)cn1 | > 10.6 | IC50 (PBLUC_HILL_SLOPE 0.428, PBLUC_R_SQUARED 0.727, read-out: LUCIFERASE INFECTION ASSAY - IC50): 0.0859 µM
30 | O=C(COc1ccccc1CSc1ccc(Cl)cc1)N/N=C\c1ccc(Cl)cc1 | > 7.41 | IC50 (PBLUC_HILL_SLOPE 0.291, PBLUC_R_SQUARED 0.508, read-out: LUCIFERASE INFECTION ASSAY - IC50): > 7.41 µM
31 | O=C(Nc1ccc(Cl)cc1)OCc1nccn1Cc1ccc(Cl)cc1 | > 8.77 | IC50 (PBLUC_HILL_SLOPE 0.184, PBLUC_R_SQUARED 0.0602, read-out: LUCIFERASE INFECTION ASSAY - IC50): > 8.77 µM
32 | COc1ccc(S(=O)(=O)NC(C)(C)C)cc1C(C)(C)C | > 3.33 | IC50 (PBLUC_HILL_SLOPE 0.386, PBLUC_R_SQUARED 0.474, read-out: LUCIFERASE INFECTION ASSAY - IC50): 0.196 µM
33 | CC1(C)CC(CCNCc2ccc(F)cc2)(Cc2ccccc2)CCO1 (stereo not given) | 4.13 | IC50 (HEPG2TOX_HILL_SLOPE 551, HEPG2TOX_R_SQUARED 0.482, PBLUC_HILL_SLOPE 3.65, PBLUC_R_SQUARED 0.507, read-out: LUCIFERASE INFECTION ASSAY - IC50): 2.26 µM
34 | N=C1NC(=O)C(C2(O)C(=O)N(Cc3ccccc3)c3ccc(Cl)cc32)S1 (stereo not given) | > 8.51 | IC50 (PBLUC_HILL_SLOPE 0.13, PBLUC_R_SQUARED 0.0166, read-out: LUCIFERASE INFECTION ASSAY - IC50): > 8.51 µM
35 | C(#Cc1ccc(-c2cc[nH]n2)s1)c1ccccc1 | > 13.2 | IC50 (PBLUC_HILL_SLOPE 0.121, PBLUC_R_SQUARED 0.262, read-out: LUCIFERASE INFECTION ASSAY - IC50): 0.0465 µM
36 | O=C(Nc1ccc(N2CCCC2)cn1)c1cc(Cl)ccn1 | 2.06 | IC50 (PBLUC_HILL_SLOPE 0.363, 0.720, PBLUC_R_SQUARED 0.388, 0.822, read-out: LUCIFERASE INFECTION ASSAY - IC50): 0.119 µM
37 | Cc1cnc(C(=O)Nc2cc(C(F)(F)F)ccc2N2CCN(C)CC2)cn1 | > 10 | IC50 (PBLUC_HILL_SLOPE 0.31, PBLUC_R_SQUARED 0.853, read-out: LUCIFERASE INFECTION ASSAY - IC50): > 10 µM
38 | O=C(COC(=O)C1Cc2ccccc2CN1S(=O)(=O)/C=C/c1ccccc1)c1ccccc1 (stereo not given) | > 10 | IC50 (PBLUC_HILL_SLOPE 0.237, PBLUC_R_SQUARED 0.0458, read-out: LUCIFERASE INFECTION ASSAY - IC50): > 10 µM
39 | Cc1cc2ncc(-c3ccnc(SCC(=O)Nc4ccc(Cl)cc4Cl)n3)c(C)n2n1 | > 7.18 | IC50 (PBLUC_HILL_SLOPE 0.44, PBLUC_R_SQUARED 0.0613, read-out: LUCIFERASE INFECTION ASSAY - IC50): > 7.18 µM
40 | CCOC(=O)c1sc(N(Cc2ccccc2)C(=O)C2CC2C)nc1C (stereo not given) | > 10 | IC50 (PBLUC_HILL_SLOPE 0.389, PBLUC_R_SQUARED 0.128, read-out: LUCIFERASE INFECTION ASSAY - IC50): 1.6 µM
